{"source": "paper PMC8416862", "about": "(Clinical Pharmacokinetics, 2021)", "key": {"[1]": {"conditions": "co-administered with once-weekly subcutaneous semaglutide; cited from earlier work"}, "[2]": {"experiment": "Trial 2: plasma pharmacokinetics of single-dose furosemide and rosuvastatin", "type": "in vivo, healthy male and female subjects", "conditions": "single dose co-administered with oral semaglutide versus alone"}, "[3]": {"conditions": "cited from earlier work"}, "CYP enzymes": {"system": "CYP enzymes", "conditions": "in vitro studies; cited from earlier work"}, "drug transporters": {"system": "drug transporters", "conditions": "in vitro studies; cited from earlier work"}}, "data": [{"smiles": "C#C[C@]1(O)CC[C@H]2[C@@H]3CCC4=CC(=O)CC[C@@H]4[C@H]3CC[C@@]21CC", "note": "[levonorgestrel]", "values": [{"measurement": "increase in AUC", "setting": "[1]", "value": 20, "unit": "%"}]}, {"smiles": "CC(C)c1nc(N(C)S(C)(=O)=O)nc(-c2ccc(F)cc2)c1/C=C/[C@@H](O)C[C@@H](O)CC(=O)O", "note": "[Rosuvastatin, rosuvastatin]", "values": [{"measurement": "increase in maximum concentration", "setting": "[2]", "value": 10, "unit": "%"}, {"measurement": "increase in total exposure", "setting": "[2]", "value": 41, "unit": "%"}, {"measurement": "bioavailability, orally administered", "setting": "[3]; oral administration", "value": "approximately 20%"}]}, {"smiles": "CC[C@H](C)[C@H](NC(=O)[C@H](Cc1ccccc1)NC(=O)[C@H](CCC(=O)O)NC(=O)[C@H](CCCCNC(=O)COCCOCCNC(=O)COCCOCCNC(=O)CC[C@H](NC(=O)CCCCCCCCCCCCCCCCC(=O)O)C(=O)O)NC(=O)[C@H](C)NC(=O)[C@H](C)NC(=O)[C@H](CCC(N)=O)NC(=O)CNC(=O)[C@H](CCC(=O)O)NC(=O)[C@H](CC(C)C)NC(=O)[C@H](Cc1ccc(O)cc1)NC(=O)[C@H](CO)NC(=O)[C@H](CO)NC(=O)[C@@H](NC(=O)[C@H](CC(=O)O)NC(=O)[C@H](CO)NC(=O)[C@@H](NC(=O)[C@H](Cc1ccccc1)NC(=O)[C@@H](NC(=O)CNC(=O)[C@H](CCC(=O)O)NC(=O)C(C)(C)NC(=O)[C@@H](N)Cc1cnc[nH]1)[C@@H](C)O)[C@@H](C)O)C(C)C)C(=O)N[C@@H](C)C(=O)N[C@@H](Cc1c[nH]c2ccccc12)C(=O)N[C@@H](CC(C)C)C(=O)N[C@H](C(=O)N[C@@H](CCCNC(=N)N)C(=O)NCC(=O)N[C@@H](CCCNC(=N)N)C(=O)NCC(=O)O)C(C)C", "note": "[Semaglutide, semaglutide]", "values": [{"measurement": "potential to inhibit or induce CYP enzymes", "setting": "CYP enzymes", "value": "very low potential"}, {"measurement": "potential to inhibit drug transporters", "setting": "drug transporters", "value": "very low potential"}, {"measurement": "elimination of intact semaglutide in urine", "setting": "[3]; absorption, metabolism and excretion trial with subcutaneous semaglutide", "value": 3, "unit": "%"}]}, {"smiles": "NS(=O)(=O)c1cc(C(=O)O)c(NCc2ccco2)cc1Cl", "note": "[Furosemide, furosemide]", "values": [{"measurement": "decrease in the maximum concentration", "setting": "[2]", "value": 34, "unit": "%"}]}]}
